Laboratory results reported in patent publication EP4417607A1, “HETEROCYCLIC COMPOUND AS SOS1 INHIBITOR AND USES THEREOF” (Nanjing Zaiming Pharmaceutical Co., Ltd., priority 2021, dated 2023).

Tests used:
[1] = test system: H358 cells; test: H358 cell proliferation inhibition (CellTiter-Glo luminescent cell viability assay); format: cell-based; conditions: Homo sapiens, NCI-H358, 168 h, 7 days
Procedure, shortened: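 H358 cells seeded at 3000 cells/well in RPMI1640/10% FBS, treated with compound for 7 days at 37 °C/5% CO2. Viability read by CellTiter-Glo 3D luminescence, normalised to cell-free (100%) and compound-free (0%) controls; IC50 fitted from 8 concentrations by four-parameter curve.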

[2] = test system: p-ERK pathway in H358 cells; test: p-ERK pathway inhibition in H358 cells (Advanced phospho-ERK (Thr202/Tyr204) cellular kit, HTRF); format: cell-based; conditions: Homo sapiens, NCI-H358, 1 h compound incubation
Procedure, shortened: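 Serum-starved H358 cells (50000/well, overnight) treated with compound for 1 h at 37 °C, then lysed; phospho-ERK (Thr202/Tyr204) read by HTRF (665/620 nm ratio). Cell-free wells set 100% inhibition, untreated cells 0%; IC50 fitted from 8 concentrations by four-parameter curve.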

| SMILES | IC50 [1] | IC50 [2] |
| --- | --- | --- |
| [2H]C([2H])([2H])[C@@H](Nc1nc(C)nc2c(N3CCOC[C@@H]3C)c(=O)n(C3(CF)CC3)cc12)c1cccc(C(F)F)c1F [Example 113, 4-(((R)-1-(3-(difluoromethyl)-2-fluorophenyl)ethyl-2,2,2-d3)amino)-6-(1-(fluoromethyl)cyclopropyl)-2-methyl-8-((S)-3-methylmorpholine)pyrido[4,3-d]pyrimidine-7(6H)-one] | 0.0156 µM | 0.07 µM |
| Cc1nc(N[C@H](C)c2cccc(C(C)(F)F)c2F)c2cn(C3(CF)CC3)c(=O)c(N3CCOC[C@@H]3C)c2n1 [Example 114, 4-(((R)-1-(3-(1,1-difluoroethyl)-2-fluorophenyl)ethyl)amino)-6-(1-(fluoromethyl)cyclopropyl)-2-methyl-8-((S)-3-methylmorpholine)pyrido[4,3-d]pyrimidine-7(6H)-one] | 0.0246 µM | 0.0548 µM |
| Cc1nc(N[C@H](C)c2cccc([N+](=O)[O-])c2C)c2cn(C3(CF)CC3)c(=O)c(N3CCOCC3)c2n1 [Example 117, (R)-6-(1-(fluoromethyl)cyclopropyl)-2-methyl-4-((1-(2-methyl-3-nitrophenyl)ethyl)amino)-8-morpholinylpyrido[4,3-d]pyrimidine-7(6H)-one] | 0.0133 µM | 0.0224 µM |
| Cc1nc(N[C@H](C)c2cccc(C(F)F)c2F)c2cn(C3(CF)CC3)c(=O)c(OC(F)F)c2n1 [Example 119, (R)-8-(difluoromethoxy)-4-((1-(3-(difluoromethyl)-2-fluorophenyl)ethyl)amino)-6-(1-(fluoromethyl)cyclopropyl)-2-methylpyrido[4,3-d]pyrimidine-7(6H)-one] | 0.0721 µM | 0.0546 µM |
| Cc1nc(N[C@H](C)c2cccc(C(F)F)c2F)c2cn(N3CCOCC3)c(=O)c(-c3cnc4ccnn4c3)c2n1 [Example 120, (R)-4-((1-(3-(difluoromethyl)-2-fluorophenyl)ethyl)amino)-2-methyl-6-morpholino-8-(pyrazolo[1,5-a]pyrimidin-6-yl)pyrido[4,3-d]pyrimidine-7(6H)-one] | 0.046 µM | 0.0874 µM |
| Cc1nc(N[C@H](C)c2cccc(C(F)F)c2F)c2cn(C3(CF)CC3)c(=O)c(OCc3ccccn3)c2n1 [Example 122, (R)-4-((1-(3-(difluoromethyl)-2-fluorophenyl)ethyl)amino)-6-(1-(fluoromethyl)cyclopropyl)-2-methyl-8-(pyridin-2-ylmethoxy)pyrido[4,3-d]pyrimidine-7(6H)-one] | 0.102 µM | 0.111 µM |
| [2H][C@](C)(Nc1nc(C)nc2c(N3CCS(=O)(=O)CC3)c(=O)n(C3(CF)CC3)cc12)c1cccc(C(F)F)c1F [Example 124, (R)-4-((1-(3-(difluoromethyl)-2-fluorophenyl)ethyl-1-d)amino)-8-(1,1-dioxidothiomorpholinyl)-6-(1-(fluoromethyl)cyclopropyl)-2-methylpyrido[4,3-d]pyrimidine-7(6H)-one] | 0.0419 µM | 0.0623 µM |
| [2H][C@](C)(Nc1nc(C)nc2c(N3CCC(S(C)(=O)=O)CC3)c(=O)n(C3(CF)CC3)cc12)c1cccc(C(F)F)c1F [Example 125, (R)-4-((1-(3-(difluoromethyl)-2-fluorophenyl)ethyl-1-d)amino)-6-(1-(fluoromethyl)cyclopropyl)-2-methyl-8-(4-(methylsulfonyl)piperidin-1-yl)pyrido[4,3-d]pyrimidine-7(6H)-one] | 0.0356 µM | 0.0598 µM |
| Cc1nc(N[C@H](C)c2cccc(C(F)F)c2F)c2cn(C3(CF)CC3)c(=O)c(N3[C@@H](C)COC[C@@H]3C)c2n1 [Example 127, 4-(((R)-1-(3-(difluoromethyl)-2-fluorophenyl)ethyl)amino)-8-((3S,5S)-3,5-dimethylmorpholinyl)-6-(1-(fluoromethyl)cyclopropyl)-2-methylpyrido[4,3-d]pyrimidine-7(6H)-one] | 0.09 µM | 0.0725 µM |
| Cc1nc(N[C@H](C)c2cccc(C(F)F)c2F)c2cn(C3(CF)CC3)c(=O)c(N3CCN(CC(F)(F)F)CC3)c2n1 [Example 131, (R)-4-((1-(3-(difluoromethyl)-2-fluorophenyl)ethyl)amino)-6-(1-(fluoromethyl)cyclopropyl)-2-methyl-8-(4-(2,2,2-trifluoroethyl)piperazin-1-yl)pyrido[4,3-d]pyrimidine-7(6H)-one] | 0.0884 µM | 0.0565 µM |
| Cc1nc(N[C@H](C)c2cccc(C(F)F)c2F)c2cn(C3(CF)CC3)c(=O)c(N3CCN(CC4CC4)CC3)c2n1 [Example 132, (R)-8-(4-(cyclopropylmethyl)piperazin-1-yl)-4-((1-(3-(difluoromethyl)-2-fluorophenyl)ethyl)amino)-6-(1-(fluoromethyl)cyclopropyl)-2-methylpyrido[4,3-d]pyrimidine-7(6H)-one] | 0.0373 µM | 0.0843 µM |
| Cc1nc(N[C@H](C)c2cccc(C(F)F)c2F)c2cn(C3(CF)CC3)c(=O)c(N3CCN(CC4COC4)CC3)c2n1 [Example 133, (R)-4-((1-(3-(difluoromethyl)-2-fluorophenyl)ethyl)amino)-6-(1-(fluoromethyl)cyclopropyl)-2-methyl-8-(4-(oxetan-3-ylmethyl)piperazin-1-yl)pyrido[4,3-d]pyrimidine-7(6H)-one] | 0.0349 µM | 0.07 µM |
| Cc1nc(N[C@H](C)c2cccc(C(F)F)c2F)c2cn(C3(CF)CC3)c(=O)c(N3CCOC[C@@H]3CO)c2n1 [Example 135, 4-(((R)-1-(3-(difluoromethyl)-2-fluorophenyl)ethyl)amino)-6-(1-(fluoromethyl)cyclopropyl)-8-((S)-3-(hydroxymethyl)morpholinyl)-2-methylpyrido[4,3-d]pyrimidine-7(6H)-one] | 0.0652 µM | 0.059 µM |
| Cc1nc(N[C@H](C)c2cccc(C(F)F)c2F)c2cn(C3(CF)CC3)c(=O)c(N3CCOC[C@@H]3CF)c2n1 [Example 136, 4-(((R)-1-(3-(difluoromethyl)-2-fluorophenyl)ethyl)amino)-6-(1-(fluoromethyl)cyclopropyl)-8-((R)-3-(fluoromethyl)morpholinyl)-2-methylpyrido[4,3-d]pyrimidine-7(6H)-one] | 0.0423 µM | 0.0802 µM |
| Cc1nc(N[C@H](C)c2cccc(C(F)F)c2F)c2cn(N3CCOCC3)c(=O)c(-c3cnn4c3COCC4)c2n1 [Example 138, (R)-4-((1-(3-(difluoromethyl)-2-fluorophenyl)ethyl)amino)-8-(6,7-dihydro-4H-pyrazolo[5,1-c][1,4]oxazin-3-yl)-2-methyl-6-morpholinylpyrido[4,3-d]pyrimidine-7(6H)-one] | 0.115 µM | 0.0631 µM |
| Cc1nc(N[C@H](C)c2cccc(C(F)F)c2F)c2cn(C3(CF)CC3)c(=O)c(C3(O)CCOC3)c2n1 (stereo partly drawn) [Example 139, 4-(((R)-1-(3-(difluoromethyl)-2-fluorophenyl)ethyl)amino)-6-(1-(fluoromethyl)cyclopropyl)-8-(3-hydroxytetrahydrofuran-3-yl)-2-methylpyrido[4,3-d]pyrimidine-7(6H)-one] | 0.0866 µM | 0.0812 µM |
| Cc1nc(N[C@H](C)c2cccc(C(F)F)c2F)c2cn(C3(CF)CC3)c(=O)c(N3CCN(C4CC4)CC3)c2n1 [Example 142, (R)-8-(4-cyclopropylpiperazin-1-yl)-4-((1-(3-(difluoromethyl)-2-fluorophenyl)ethyl)amino)-6-(1-(fluoromethyl)cyclopropyl)-2-methylpyrido[4,3-d]pyrimidine-7(6H)-one] | 0.0241 µM | 0.0437 µM |
